53 molecules from ChEMBL document CHEMBL1123597, “Synthesis and structure-activity relationships of pyrazolo[4,3-d]pyrimidin-7-ones as adenosine receptor antagonists” (J Med Chem, 1987) can be followed below.

SMILES strings stand for the structures.
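Wherever PCY is given: radioligand displacement of N6-[3H]cyclohexyladenosine binding in rat brain membranes, PCY computed as the log of 100000 divided by IC50.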

The first assay deals with T1, Adenosine receptor A1 (Rattus norvegicus, UniProt P25099).
T1 sequence (P25099 whole entry): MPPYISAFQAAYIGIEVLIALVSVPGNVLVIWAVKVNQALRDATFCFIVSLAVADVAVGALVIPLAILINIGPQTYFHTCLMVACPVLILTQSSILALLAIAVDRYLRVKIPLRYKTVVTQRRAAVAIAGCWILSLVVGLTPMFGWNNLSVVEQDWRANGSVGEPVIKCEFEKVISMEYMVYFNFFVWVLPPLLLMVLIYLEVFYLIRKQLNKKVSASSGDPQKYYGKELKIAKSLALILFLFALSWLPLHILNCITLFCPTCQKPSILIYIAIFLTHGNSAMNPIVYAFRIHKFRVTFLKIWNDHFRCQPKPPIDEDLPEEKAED
As to the kind of experiment: Binding affinity against adenosine A1 receptor in rat brain membrane preparations using N6-[3H]cyclohexyladenosine as a radioligand.
Settings: not given
The class given is cell membranes.
`Cn1c(=O)c2nc(-c3cccc([N+](=O)[O-])c3)[nH]c2n(C)c1=O` returned an IC50 of 50 nM.
`Cc1ccc(-c2nc3c(C)nn(C)c3c(=O)[nH]2)cc1` displayed an IC50 of 400 nM.
For the molecule `Cn1c(=O)c2[nH]c(-c3ccc(Cl)cc3)nc2n(C)c1=O`, the IC50 came to 0.8 nM.
Molecule `CCn1nc(C)c2nc(-c3ccncc3)[nH]c(=O)c21` registered an IC50 of 250 nM.
The same measure, in the same setting: the result for `Cn1c(=O)c2[nH]c(Cc3ccccc3)nc2n(C)c1=O` reads 1500 nM; that for `Cn1c(=O)c2[nH]c(-c3ccc([N+](=O)[O-])cc3)nc2n(C)c1=O`, 8 nM.
In turn, `Cn1c(=O)c2[nH]c(-c3cccc(N)c3)nc2n(C)c1=O` displayed an IC50 of 10 nM.
Regarding `Cc1ccc(-c2nc3c([nH]2)c(=O)n(C)c(=O)n3C)cc1`, the IC50 is 0.8 nM.
In turn, `Cn1c(=O)c2[nH]c(-c3ccc(Cl)cc3N)nc2n(C)c1=O` displayed an IC50 of 0.4 nM.
In the case of `COc1cc(OC)cc(-c2nc3c([nH]2)c(=O)n(C)c(=O)n3C)c1`, the IC50 stood at 500 nM.
In the case of `COc1ccc(-c2nc3c([nH]2)c(=O)n(C)c(=O)n3C)c(OC)c1`, the IC50 worked out at 200 nM.
In turn, `CCn1nc(C)c2nc(Cc3ccccc3)nc(O)c21` returned an IC50 of 820 nM.
`COc1cccc(-c2nc3c(C)nn(C)c3c(=O)[nH]2)c1` had an IC50 of 1470 nM.
For the molecule `COc1cc(OC)cc(-c2nc(O)c3c(n2)c(C)nn3C)c1`, the IC50 was determined as 7060 nM.
The same measure, in the same setting: the result for `Cn1c(=O)c2nc(-c3ccc(Cl)c(Cl)c3)[nH]c2n(C)c1=O` reads 5 nM; that for `Cc1nn(C)c2c(=O)[nH]c(Cc3ccccc3)nc12`, 1310 nM; that for `Cn1c(=O)c2[nH]c(-c3cccnc3)nc2n(C)c1=O`, 50 nM.
`Cc1nn(C)c2c(O)nc(-c3ccc(S(=O)(=O)O)cc3)nc12` displayed an IC50 of 2300 nM.
Consider `Cc1nn(C)c2c(=O)[nH]c(-c3ccc(N)cc3)nc12`, for which the IC50 amounted to 380 nM.
`COc1ccccc1-c1nc2c([nH]1)c(=O)n(C)c(=O)n2C` returned an IC50 of 350 nM.
With `Cn1c(=O)c2nc(-c3ccccc3N)[nH]c2n(C)c1=O`, the IC50 amounted to 5.5 nM.
Consider `Cn1c(=O)c2[nH]c(-c3ccc(N)cc3)nc2n(C)c1=O`, for which the IC50 was 1.8 nM.
In the case of `CC(Sc1nc(SC(C)C(N)=O)c2cnn(-c3ccccc3)c2n1)C(N)=O` (centres undefined), the IC50 came out at 1030 nM.
`Cc1nn(C)c2c(=O)[nH]c(-c3ccc(S(=O)(=O)NCCN(C)C)cc3)nc12`: the IC50 came out at 68 nM.
Still for that read-out and setting: next, `Cc1nn(C)c2c(O)nc(-c3ccccc3N)nc12`: 230 nM; `Cc1nn(C)c2c(=O)[nH]cnc12`: 20100 nM.
In turn, `CCn1c(=O)n(C)c(=O)c2[nH]c(-c3ccccc3)nc21` displayed an IC50 of 3 nM.
`Cc1nn(C)c2c(=O)[nH]c(-c3ccc(Cl)cc3N)nc12`: the IC50 is 310 nM.

A further assay has as its target T2, Adenosine receptor A1 (Rattus norvegicus) (UniProt P25099).
T2 sequence (whole entry): T1 sequence (P25099 whole entry)
Conditions: Brain; Membrane.
Description: Binding affinity against adenosine A1 receptor in rat brain membrane preparations using N6-[3H]cyclohexyladenosine as radioligand, PCY = log (100000/IC50).
The molecule `Cn1c(=O)c2nc(-c3ccc(N)cc3)[nH]c2n(C)c1=O` registered a PCY of 4.7.
With `Cc1nn(C)c2c(O)nc(-c3cccc(N)c3)nc12`, the PCY turned out to be 1.8.
Same read-out and setting: next, `COc1ccc(-c2nc(O)c3c(n2)c(C)nn3C)c(OC)c1`: 1.3; `COc1ccc(-c2nc(O)c3c(n2)c(C)nn3C)cc1OC`: 1.7; `Cc1nn(C)c2c(O)nc(-c3ccc([N+](=O)[O-])cc3)nc12`: 2.1.
In turn, `Cc1nn(C)c2c(O)nc(-c3ccc(Cl)c(Cl)c3)nc12` came in with a PCY of 2.
`Cn1c(=O)c2nc(-c3ccc(Cl)cc3N)[nH]c2n(C)c1=O` gave a PCY of 5.4.
In the case of `COc1cc(OC)cc(-c2nc(O)c3c(n2)c(C)nn3C)c1`, the PCY was found to be 1.2.
Consider `Cn1c(=O)c2nc(-c3ccc(Cl)c(Cl)c3)[nH]c2n(C)c1=O`, for which the PCY turned out to be 4.3.
In turn, `Cc1nn(C)c2c(O)nc(-c3ccc(N)cc3)nc12` showed a PCY of 2.4.
`Cc1nn(C)c2c(O)nc(-c3ccncc3)nc12` had a PCY of 2.
Turning to `COc1ccccc1-c1nc(O)c2c(n1)c(C)nn2C`, the PCY is 1.
`Cc1nn(C)c2c(O)nc(Cc3ccccc3)nc12` came in with a PCY of 1.9.
`Cc1nn(C)c2c(O)nc(-c3ccc(Cl)cc3N)nc12` returned a PCY of 2.5.
The same measure, in the same setting: the result for `Cc1nn(C)c2c(O)ncnc12` reads 0.7; that for `Cc1nn(C)c2c(O)nc(-c3ccc(S(=O)(=O)O)cc3)nc12`, 1.6; that for `COc1ccccc1-c1nc2c(=O)n(C)c(=O)n(C)c2[nH]1`, 2.5.
`Cn1c(=O)c2nc(-c3cccnc3)[nH]c2n(C)c1=O` came in with a PCY of 3.3.
Molecule `COc1cccc(-c2nc3c(=O)n(C)c(=O)n(C)c3[nH]2)c1` displayed a PCY of 3.7.
As for `COc1cccc(-c2nc(O)c3c(n2)c(C)nn3C)c1`, the PCY was found to be 1.8.
`Cn1c(=O)c2nc(-c3ccc(S(=O)(=O)O)cc3)[nH]c2n(C)c1=O` came in with a PCY of 3.6.
Same read-out and setting: next, `Cc1nn(C)c2c(O)nc(-c3cccnc3)nc12`: 1.5; `Cn1c(=O)c2nc(-c3ccccc3N)[nH]c2n(C)c1=O`: 4.3.
Same read-out and setting: the result for `Cn1c(=O)c2nc(Cc3ccccc3)[nH]c2n(C)c1=O` reads 1.8.
The molecule `Cc1nn(C)c2c(O)nc(-c3cccc([N+](=O)[O-])c3)nc12` displayed a PCY of 1.9.
`Cc1nn(C)c2c(O)nc(-c3ccc(Cl)cc3)nc12` had a PCY of 2.4.
On the same count and under the same terms, the result for `CCn1nc(C)c2nc(-c3ccccc3)nc(O)c21` reads 2.2; that for `Cc1nn(C)c2c(O)nc(-c3ccccc3N)nc12`, 2.6; that for `CCn1c(=O)n(C)c(=O)c2[nH]c(-c3ccccc3)nc21`, 4.5.
In turn, `Cc1nn(C)c2c(O)nc(-c3ccccc3)nc12` registered a PCY of 2.
With `Cc1ccc(-c2nc(O)c3c(n2)c(C)nn3C)cc1`, the PCY was 2.4.

By IC50 is commonly meant the point on the concentration scale where inhibition reaches its midpoint. Lower therefore signals greater potency.
